# In ChEMBL document CHEMBL1201862, “PubChem BioAssay data set” (2004):
# Activity calls are given as the source filed them.
# Experiments:
# [1] = intracellular Trypanosoma cruzi inhibitors in host cells – cell-based, plate reader, cherry-pick samples, set 3, dose response (AID 651818); type: functional;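 note: compounds incubated with infected cells for about four days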
# SN12K1 = assay: cells; type: functional; details: Homo sapiens
# P388/ADR = assay: cells; type: functional; details: Mus musculus
# P388 = assay: cells; type: functional; details: Mus musculus
# [2] = target: DNA dC->dU-editing enzyme APOBEC-3G (Homo sapiens, UniProt Q9HC16); type: functional;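 note: Dose-response counterscreen measuring inhibition of APOBEC3G DNA deaminase activity, run while confirming APOBEC3A inhibitors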
# [3] = target: DNA dC->dU-editing enzyme APOBEC-3A (Homo sapiens, UniProt P31941); assay: Dose Response confirmation of small molecule APOBEC3A DNA Deaminase Inhibitors via a fluorescence-based single-stranded DNA deaminase assay. [Related pubchem assays (depositor defined):AID493011, AID493024]; type: functional
# [4] = target: T1, Heat shock factor protein 1 (Mus musculus, UniProt P38532); assay: enhancement of HSF1-driven luciferase signal – cell-based, NIH3T3, luminescence, dose retest, confirmation (AID 435004); type: functional;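 note: stress induced by proteasome inhibitor MG132 added 30 min after compound; luciferase reporter driven by HSF1 response element in NIH3T3 cells; actives raise luminescence as potentiators of the MG132 stress response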
# T1 sequence (P38532 whole entry): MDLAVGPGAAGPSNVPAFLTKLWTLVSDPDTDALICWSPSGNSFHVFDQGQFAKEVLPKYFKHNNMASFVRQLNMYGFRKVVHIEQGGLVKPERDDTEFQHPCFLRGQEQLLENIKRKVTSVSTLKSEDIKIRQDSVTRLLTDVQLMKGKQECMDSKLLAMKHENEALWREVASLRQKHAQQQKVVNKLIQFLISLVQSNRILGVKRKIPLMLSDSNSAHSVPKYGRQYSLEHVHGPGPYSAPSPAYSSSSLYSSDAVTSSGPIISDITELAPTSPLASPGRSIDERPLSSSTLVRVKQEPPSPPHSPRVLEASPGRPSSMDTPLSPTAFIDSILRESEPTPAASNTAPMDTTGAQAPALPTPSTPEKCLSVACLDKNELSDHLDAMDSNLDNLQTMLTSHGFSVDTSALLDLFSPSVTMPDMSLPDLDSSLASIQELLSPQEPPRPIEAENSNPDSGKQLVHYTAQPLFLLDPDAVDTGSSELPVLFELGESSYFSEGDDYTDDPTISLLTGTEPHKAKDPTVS
# Vero = assay: cells; type: functional; details: Chlorocebus sabaeus
# Cytochrome P450 2C19 = Cytochrome P450 2C19 (Homo sapiens, UniProt P33261); assay: Cytochrome panel assay with activity outcomes. Panel member name: p450-cyp2c19 Compounds with AC50 equal or less than 10 uM are considered active; type: functional; details: read-out: AC50
# Cytochrome P450 2C9 = Cytochrome P450 2C9 (Homo sapiens, UniProt P11712)
# H9c2 = assay: cells; type: functional, cell-based; details: Rattus norvegicus, H9c2, Myocardium;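 note: confirmatory concentration-response retest of ultra-high-throughput screening hits for modulation of myocardial damage; cell death induced by hydrogen peroxide oxidative stress; compound pretreatment for 60 min then peroxide exposure for 2 h; potency is for protecting the cells against peroxide damage rather than for killing them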
# Sequence of DNA dC->dU-editing enzyme APOBEC-3A (P31941 whole entry): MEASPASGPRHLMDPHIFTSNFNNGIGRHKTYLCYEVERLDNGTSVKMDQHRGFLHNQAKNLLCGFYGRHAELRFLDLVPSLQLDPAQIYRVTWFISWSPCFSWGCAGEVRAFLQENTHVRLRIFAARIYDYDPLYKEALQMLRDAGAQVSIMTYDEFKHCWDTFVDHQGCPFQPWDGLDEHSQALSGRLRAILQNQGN
# Sequence of DNA dC->dU-editing enzyme APOBEC-3G (Q9HC16 whole entry): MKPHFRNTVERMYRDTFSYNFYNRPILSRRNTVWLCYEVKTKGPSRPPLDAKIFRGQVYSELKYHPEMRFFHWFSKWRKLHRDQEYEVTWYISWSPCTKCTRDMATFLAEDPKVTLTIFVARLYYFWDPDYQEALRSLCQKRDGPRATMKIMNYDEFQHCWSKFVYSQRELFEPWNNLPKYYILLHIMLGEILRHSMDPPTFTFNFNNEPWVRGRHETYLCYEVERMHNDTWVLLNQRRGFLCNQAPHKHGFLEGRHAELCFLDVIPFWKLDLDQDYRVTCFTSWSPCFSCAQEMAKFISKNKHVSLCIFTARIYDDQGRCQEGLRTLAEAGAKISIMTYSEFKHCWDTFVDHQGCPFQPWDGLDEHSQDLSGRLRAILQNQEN
# Sequence of Cytochrome P450 2C9 (P11712 whole entry): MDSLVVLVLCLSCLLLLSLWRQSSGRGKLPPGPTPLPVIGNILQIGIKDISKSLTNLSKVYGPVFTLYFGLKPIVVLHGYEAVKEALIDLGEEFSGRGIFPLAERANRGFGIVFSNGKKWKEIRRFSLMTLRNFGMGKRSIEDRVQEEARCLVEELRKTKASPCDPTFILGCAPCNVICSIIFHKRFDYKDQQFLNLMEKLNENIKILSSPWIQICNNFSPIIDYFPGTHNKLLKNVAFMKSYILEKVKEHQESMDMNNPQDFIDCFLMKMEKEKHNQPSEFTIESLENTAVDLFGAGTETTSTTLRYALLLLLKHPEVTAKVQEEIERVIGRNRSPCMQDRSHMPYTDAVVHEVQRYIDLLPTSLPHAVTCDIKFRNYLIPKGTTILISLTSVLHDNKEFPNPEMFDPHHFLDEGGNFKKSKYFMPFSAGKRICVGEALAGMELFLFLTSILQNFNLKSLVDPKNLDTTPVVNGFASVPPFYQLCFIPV
# Sequence of Cytochrome P450 2C19 (P33261 whole entry): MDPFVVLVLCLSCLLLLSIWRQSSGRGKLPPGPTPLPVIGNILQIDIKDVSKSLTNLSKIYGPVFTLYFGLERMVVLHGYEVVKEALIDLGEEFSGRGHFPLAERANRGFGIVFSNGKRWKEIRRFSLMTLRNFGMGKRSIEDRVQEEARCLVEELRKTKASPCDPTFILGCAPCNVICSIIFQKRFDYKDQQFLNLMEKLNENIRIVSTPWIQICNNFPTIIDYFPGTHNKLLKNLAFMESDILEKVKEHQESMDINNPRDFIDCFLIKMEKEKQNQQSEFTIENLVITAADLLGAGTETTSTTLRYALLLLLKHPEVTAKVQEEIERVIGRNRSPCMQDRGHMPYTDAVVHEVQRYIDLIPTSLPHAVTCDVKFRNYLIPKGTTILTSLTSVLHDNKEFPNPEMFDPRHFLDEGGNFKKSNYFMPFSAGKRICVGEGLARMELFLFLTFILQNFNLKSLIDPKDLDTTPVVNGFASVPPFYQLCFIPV
smiles,measurement,setting,value
C[C@@H]1CN([C@H](C)CO)C(=O)Cc2cc(NS(=O)(=O)c3ccc(F)cc3)ccc2O[C@@H]1CN(C)S(=O)(=O)c1ccccc1,AC50,[1],5.74 µM (active)
CC(=O)NC(Cc1ccsc1)C(=O)O (centres undefined),GI50,SN12K1,> 100 µM (inactive)
same,GI50,P388/ADR,> 100 µM (inactive)
same,GI50,P388,> 100 µM (inactive)
Cc1cccc(C)c1OCC(=O)NCc1nnc(SCC(=O)NC2CCCCC2C)n1C (centres undefined),IC50,[2],6.2 µM (active)
same,IC50,[3],2.78 µM (active)
same,EC50,[4],> 260 µM (inactive)
C=CCN1C(=O)/C(=C/c2ccc3c(c2)CCCN3CCC)C(=O)NC1=S,CC50,Vero,18.3 µM (active)
COc1cccc(C2=CC(c3cc(OC)ccc3OC)n3nnnc3N2)c1 (centres undefined),CC50,Vero,14.4 µM (active)
COc1cc(Nc2cccc[n+]2C)cc(OC)c1OC,IC50,[2],2.85 µM (active)
same,IC50,[3],3.48 µM (active)
C[C@H]1CN([C@@H](C)CO)C(=O)c2cc(NC(=O)Nc3ccc(C(F)(F)F)cc3)ccc2O[C@@H]1CN(C)Cc1ccc2c(c1)OCO2,AC50,[1],4.02 µM (active)
NC(=O)NN=C(CS)CS,GI50,SN12K1,18.7 µM (inactive)
same,GI50,P388/ADR,29.2 µM (inactive)
same,GI50,P388,19.1 µM (inactive)
O=C1OCc2cccc3cccc1c23,AC50,Cytochrome P450 2C19,39.8 µM (inconclusive)
same,AC50,Cytochrome P450 2C9,inconclusive
Cc1c(C(=O)Nc2ccc(OCc3ccccc3)cc2)cccc1[N+](=O)[O-],AC50,Cytochrome P450 2C9,inconclusive
CC1=C2C(=CO[C@H](C)[C@H]2C)C(O)=C(C(=O)O)C1=O [CITRININ],GI50,SN12K1,15.3 µM (inactive)
same,GI50,P388/ADR,11.5 µM (inactive)
same,GI50,P388,17 µM (inactive)
Cc1[nH]c(=O)c(C(=O)/C=C/c2ccccc2F)c2c1CCCC2,AC50,Cytochrome P450 2C9,inconclusive
CC(C)C(NC(=O)c1ccc2c(c1)OCO2)C(=O)N/N=C\c1ccco1 (centres undefined),IC50,[2],15.9 µM (active)
same,IC50,[3],> 100 µM (inactive)
COc1cccc2c1C(=O)c1c(O)c3c(c(O)c1C2=O)C[C@@](O)(C(C)=O)C[C@@H]3OC1CC(N)C(O)C(C)O1 (some centres undefined),GI50,SN12K1,0.069 µM (active)
same,GI50,P388/ADR,1.23 µM (inactive)
same,GI50,P388,0.076 µM (active)
N#C/C(=C\c1c[nH]nc1-c1ccccc1)C(=O)NC1CCCCCC1,AC50,Cytochrome P450 2C9,inconclusive
O=C(NCCOc1ccccc1)c1nc[nH]n1,IC50,[2],18.7 µM (active)
same,IC50,[3],6.18 µM (active)
C[C@H]1CN([C@@H](C)CO)C(=O)c2cccc(N(C)C)c2O[C@H]1CN(C)Cc1ccc(C(=O)Nc2ccccc2N)cc1,AC50,[1],4.84 µM (active)
CC(=O)/C=C/c1c[nH]c(=O)[nH]c1=O,GI50,SN12K1,121 µM (inactive)
same,GI50,P388/ADR,148 µM (inactive)
same,GI50,P388,164 µM (inactive)
CC[C@]12C=CCN3CCC4(c5cc(Br)c(OC)cc5N(C)C4[C@@](O)(C(=O)OC)[C@@H]1OC(C)=O)C32 (some centres undefined),IC50,[2],1.81 µM (active)
same,IC50,[3],2.14 µM (active)
C=CC[C@@H](CC(=O)N(CCO)Cc1ccccc1)C(=O)N[C@@H](COC(=O)[C@@H](CC=C)Cc1ccc(F)cc1)Cc1c[nH]c2ccccc12,CC50,Vero,18 µM (active)
CN1CCC(N(C)S(=O)(=O)c2ccc(NC(=O)c3ccc(S(=O)(=O)N(C)C)cc3)cc2)CC1,IC50,[2],16 µM (active)
same,IC50,[3],13.9 µM (active)
C[C@@H]1CN([C@H](C)CO)C(=O)Cc2cc(NC(=O)Nc3ccc(C(F)(F)F)cc3)ccc2O[C@@H]1CN(C)Cc1ccc(Oc2ccccc2)cc1,AC50,[1],3.3 µM (active)
CCN(CC)c1ccc2cc(C(=O)Nc3ccc4[nH]c(C(=O)N5C[C@@H](CCl)c6c5cc(OC(=O)Nc5ccccc5)c5[nH]cc(C)c65)cc4c3)oc2c1 [CARZELESIN],GI50,SN12K1,0.00016 µM (active)
same,GI50,P388/ADR,259 µM (inactive)
same,GI50,P388,8.38e-05 µM (active)
CCN1C(NCCCCO)=N[C@@H](c2cccc(C(F)(F)F)c2)C(C(=O)OC)=C1C,IC50,[2],2.44 µM (active)
same,IC50,[3],2.59 µM (active)
C[C@@H]1CN([C@@H](C)CO)C(=O)c2cc(NS(=O)(=O)c3ccc(F)cc3)ccc2O[C@H]1CN(C)Cc1ccc(C(=O)Nc2ccccc2N)cc1,AC50,[1],3.6 µM (active)
O=C1N[C@@H]([C@H]2CC[C@H](Cl)CN2)C(=O)N[C@H]1[C@H]1CC[C@H](Cl)CN1,GI50,SN12K1,1.02 µM (active)
same,GI50,P388/ADR,0.318 µM (active)
same,GI50,P388,0.327 µM (active)
C[C@H](CO)N1C[C@H](C)[C@H](CN(C)Cc2ccc(C(F)(F)F)cc2)Oc2ccc(NC(=O)Cc3cn(C)c4ccccc34)cc2C1=O,AC50,[1],4.35 µM (active)
CCOC(=O)c1c(NC(=O)CSc2c[nH]c3ccccc23)sc2c1CCCC2,CC50,Vero,> 25 µM (active)
CC[N+](C)(CC)CC(=O)OCC1C(C)C=C(C)CC1C (centres undefined),IC50,[2],2.04 µM (active)
same,IC50,[3],1.31 µM (active)
COCCN1Cc2cccc(C(=O)Nc3cccc(-c4nc5ccccc5[nH]4)c3)c2C1=O,IC50,H9c2,> 79 µM (inactive)
same,CC50,Vero,> 25 µM (active)
CCN(CC)CCNC(=O)c1ccc(NC(=O)C2CC(=O)N(c3ccc4c(c3)OCCO4)C2)cc1 (centres undefined),IC50,[2],8.16 µM (active)
same,IC50,[3],7.53 µM (active)
C[C@H]1CN([C@@H](C)CO)C(=O)c2cc(NC(=O)Cc3cn(C)c4ccccc34)ccc2O[C@H]1CN(C)Cc1ccc(Oc2ccccc2)cc1,AC50,[1],6.34 µM (active)
Cc1ccc(N(O)C(C)(C)C)cc1,GI50,SN12K1,> 100 µM (inactive)
same,GI50,P388/ADR,24.8 µM (inactive)
same,GI50,P388,> 52.1 µM (inactive)
CCN(CC)S(=O)(=O)c1cc(C(=O)OC)ccc1Cl,AC50,Cytochrome P450 2C9,inconclusive
C/C(=N\NC(=S)N1CCN(c2ccccn2)CC1)c1ncccn1,GI50,SN12K1,0.007 µM (active)
same,GI50,P388/ADR,0.00356 µM (active)
same,GI50,P388,0.00326 µM (active)
C[C@@H]1CN([C@H](C)CO)C(=O)Cc2cc(NC(=O)Nc3ccc4c(c3)OCO4)ccc2O[C@H]1CN(C)Cc1ccc(Oc2ccccc2)cc1,AC50,[1],3.08 µM (active)
O=C(O)CCCC[C@H]1CCSS1,AC50,Cytochrome P450 2C9,inconclusive
C[C@H](CO)N1C[C@H](C)[C@H](CN(C)S(=O)(=O)c2ccc(Cl)cc2)Oc2c(NC(=O)Nc3ccc(C(F)(F)F)cc3)cccc2C1=O,AC50,[1],4.44 µM (active)
C[C@H](CO)N1C[C@H](C)[C@H](CN(C)Cc2ccc(Cl)c(Cl)c2)Oc2c(NS(C)(=O)=O)cccc2C1=O,AC50,[1],17.3 µM (active)
C[C@@H]1CN([C@H](C)CO)C(=O)c2cc(NS(=O)(=O)c3ccc(F)cc3)ccc2O[C@H]1CN(C)Cc1ccc(-c2ccccc2)cc1,AC50,[1],5.77 µM (active)
C[C@H]1CN([C@@H](C)CO)C(=O)c2cc(NC(=O)Nc3ccc(F)cc3)ccc2O[C@H]1CN(C)Cc1ccc(-c2ccccc2)cc1,AC50,[1],3.74 µM (active)
COc1cc(/N=N\c2cccc(S(=O)(=O)O)c2)c(C)cc1/N=N\c1ccc(/C=C/c2ccc(/N=[N+](/[O-])c3ccc(/C=C/c4ccc(/N=N\c5cc(C)c(/N=N/c6cccc(S(=O)(=O)O)c6)cc5OC)cc4)c(S(=O)(=O)O)c3)cc2S(=O)(=O)O)cc1,GI50,SN12K1,> 100 µM (inactive)
same,GI50,P388,> 100 µM (inactive)
O=[N+]([O-])c1cc2ncc(-c3ccccc3)c(O)c2cc1/C(Cl)=C/c1ccccc1,GI50,SN12K1,9.08 µM (inactive)
same,GI50,P388/ADR,4.53 µM (inactive)
same,GI50,P388,7.35 µM (inactive)
C[C@]12C=CC(=O)C=C1CC[C@@H]1[C@@H]2CC[C@]2(C)OC(=O)CC[C@@H]12 [TESTOLACTONE],GI50,SN12K1,458 µM (inactive)
same,GI50,P388/ADR,161 µM (inactive)
same,GI50,P388,162 µM (inactive)
C[C@@H]1CN([C@@H](C)CO)C(=O)Cc2cc(NC(=O)Nc3ccc(C(F)(F)F)cc3)ccc2O[C@@H]1CN(C)C(=O)Nc1ccc(C(F)(F)F)cc1,AC50,[1],3.66 µM (active)
O=C(NCCCCCCNC(=O)n1cc(F)c(=O)[nH]c1=O)NCCCOCCOCCCNC(=O)C(O)C(O)C(O)C(O)CO (centres undefined),GI50,SN12K1,> 1.91 µM (inactive)
same,GI50,P388/ADR,0.0822 µM (active)
same,GI50,P388,0.107 µM (active)
COc1ccc(S(=O)(=O)Nc2ccc3c(c2)CC(=O)N([C@H](C)CO)C[C@@H](C)[C@@H](CN(C)Cc2ccc(Oc4ccccc4)cc2)O3)cc1,AC50,[1],2.26 µM (active)
